Measurements from the CheMixHub viscosity set.
± gives the uncertainty stated by the source.

Experiment: xn = mol fraction of the nth substance listed

C=C(C)C(=O)OCCCCCCC + C1CCCCC1
viscosity (303 K, 101 kPa, x1 = 0.002): 0.8392 ± 0.0085 mPa·s
viscosity (303 K, 101 kPa, x1 = 0.005): 0.8401 ± 0.0085 mPa·s
viscosity (303 K, 101 kPa, x1 = 0.01): 0.8252 ± 0.0082 mPa·s
viscosity (303 K, 101 kPa, x1 = 0.02): 0.8456 ± 0.0087 mPa·s
viscosity (313 K, 101 kPa, x1 = 0.002): 0.6991 ± 0.0056 mPa·s
viscosity (313 K, 101 kPa, x1 = 0.005): 0.7083 ± 0.0057 mPa·s
viscosity (313 K, 101 kPa, x1 = 0.01): 0.7012 ± 0.0055 mPa·s
viscosity (313 K, 101 kPa, x1 = 0.02): 0.7219 ± 0.006 mPa·s
viscosity (323 K, 101 kPa, x1 = 0.002): 0.6114 ± 0.004 mPa·s
viscosity (323 K, 101 kPa, x1 = 0.005): 0.6127 ± 0.004 mPa·s
viscosity (323 K, 101 kPa, x1 = 0.01): 0.6159 ± 0.004 mPa·s
viscosity (323 K, 101 kPa, x1 = 0.02): 0.6244 ± 0.0043 mPa·s

CCCCCCCCCCCCCCCCCC(=O)OC + C1CCCCC1
viscosity (298 K, 101 kPa, x1 = 0.05): 1.22 ± 0.03 mPa·s
viscosity (298 K, 101 kPa, x1 = 0.1): 1.46 ± 0.03 mPa·s
viscosity (298 K, 101 kPa, x1 = 0.15): 1.73 ± 0.04 mPa·s
viscosity (298 K, 101 kPa, x1 = 0.2): 2.03 ± 0.04 mPa·s
viscosity (298 K, 101 kPa, x1 = 0.25): 2.33 ± 0.05 mPa·s
viscosity (303 K, 101 kPa, x1 = 0.05): 1.14 ± 0.02 mPa·s
viscosity (303 K, 101 kPa, x1 = 0.1): 1.35 ± 0.03 mPa·s
viscosity (303 K, 101 kPa, x1 = 0.15): 1.58 ± 0.03 mPa·s
viscosity (303 K, 101 kPa, x1 = 0.2): 1.86 ± 0.04 mPa·s
viscosity (303 K, 101 kPa, x1 = 0.25): 2.12 ± 0.04 mPa·s
viscosity (303 K, 101 kPa, x1 = 0.3): 2.45 ± 0.05 mPa·s
viscosity (308 K, 101 kPa, x1 = 0.05): 1.06 ± 0.02 mPa·s
viscosity (308 K, 101 kPa, x1 = 0.1): 1.25 ± 0.03 mPa·s
viscosity (308 K, 101 kPa, x1 = 0.15): 1.46 ± 0.03 mPa·s
viscosity (308 K, 101 kPa, x1 = 0.2): 1.71 ± 0.04 mPa·s
viscosity (308 K, 101 kPa, x1 = 0.25): 1.95 ± 0.04 mPa·s
viscosity (308 K, 101 kPa, x1 = 0.3): 2.2 ± 0.05 mPa·s
viscosity (313 K, 101 kPa, x1 = 0.05): 0.99 ± 0.02 mPa·s
viscosity (313 K, 101 kPa, x1 = 0.1): 1.16 ± 0.02 mPa·s
viscosity (313 K, 101 kPa, x1 = 0.15): 1.34 ± 0.03 mPa·s
viscosity (313 K, 101 kPa, x1 = 0.2): 1.58 ± 0.03 mPa·s
viscosity (313 K, 101 kPa, x1 = 0.25): 1.78 ± 0.04 mPa·s
viscosity (313 K, 101 kPa, x1 = 0.3): 2.02 ± 0.04 mPa·s

CCCCCCCCCCCCO + C1CCCCC1
viscosity (303.15 K, 101.33 kPa, x1 = 0.0858): 1.109 ± 0.014 mPa·s
viscosity (303.15 K, 101.33 kPa, x1 = 0.1621): 1.502 ± 0.018 mPa·s
viscosity (303.15 K, 101.33 kPa, x1 = 0.305): 2.569 ± 0.029 mPa·s
viscosity (303.15 K, 101.33 kPa, x1 = 0.405): 3.522 ± 0.04 mPa·s
viscosity (303.15 K, 101.33 kPa, x1 = 0.506): 4.63 ± 0.051 mPa·s
viscosity (303.15 K, 101.33 kPa, x1 = 0.5985): 5.781 ± 0.062 mPa·s
viscosity (303.15 K, 101.33 kPa, x1 = 0.6982): 7.191 ± 0.074 mPa·s
viscosity (303.15 K, 101.33 kPa, x1 = 0.7746): 8.412 ± 0.084 mPa·s
viscosity (303.15 K, 101.33 kPa, x1 = 0.862): 9.989 ± 0.098 mPa·s

CCCCCCCCN + C1CCCCC1
viscosity (303.15 K, 101 kPa, x2 = 0.0971): 1.138 ± 0.023 mPa·s
viscosity (303.15 K, 101 kPa, x2 = 0.1959): 1.096 ± 0.022 mPa·s
viscosity (303.15 K, 101 kPa, x2 = 0.2997): 1.036 ± 0.021 mPa·s
viscosity (303.15 K, 101 kPa, x2 = 0.401): 0.97 ± 0.02 mPa·s
viscosity (303.15 K, 101 kPa, x2 = 0.497): 0.952 ± 0.019 mPa·s
viscosity (303.15 K, 101 kPa, x2 = 0.5993): 0.913 ± 0.018 mPa·s
viscosity (303.15 K, 101 kPa, x2 = 0.6975): 0.863 ± 0.017 mPa·s
viscosity (303.15 K, 101 kPa, x2 = 0.7993): 0.82 ± 0.017 mPa·s
viscosity (303.15 K, 101 kPa, x2 = 0.896): 0.81 ± 0.016 mPa·s

Cc1ccc(C)cc1 + C1CCCCC1
viscosity (303 K, 101 kPa, x1 = 0.1025): 0.7341 ± 0.0052 mPa·s
viscosity (303 K, 101 kPa, x1 = 0.2016): 0.6783 ± 0.0049 mPa·s
viscosity (303 K, 101 kPa, x1 = 0.2982): 0.6363 ± 0.0047 mPa·s
viscosity (303 K, 101 kPa, x1 = 0.402): 0.6131 ± 0.0046 mPa·s
viscosity (303 K, 101 kPa, x1 = 0.4944): 0.5946 ± 0.0046 mPa·s
viscosity (303 K, 101 kPa, x1 = 0.5992): 0.5858 ± 0.0046 mPa·s
viscosity (303 K, 101 kPa, x1 = 0.7997): 0.5735 ± 0.0047 mPa·s
viscosity (303 K, 101 kPa, x1 = 0.8951): 0.5721 ± 0.0047 mPa·s
viscosity (303.15 K, 101 kPa, x2 = 0.1016): 0.5673 ± 0.0041 mPa·s
viscosity (303.15 K, 101 kPa, x2 = 0.1997): 0.572 ± 0.0041 mPa·s
viscosity (303.15 K, 101 kPa, x2 = 0.2851): 0.5782 ± 0.0041 mPa·s
viscosity (303.15 K, 101 kPa, x2 = 0.3934): 0.591 ± 0.0042 mPa·s
viscosity (303.15 K, 101 kPa, x2 = 0.4966): 0.611 ± 0.0042 mPa·s
viscosity (303.15 K, 101 kPa, x2 = 0.5961): 0.6362 ± 0.0044 mPa·s
viscosity (303.15 K, 101 kPa, x2 = 0.6976): 0.6682 ± 0.0045 mPa·s
viscosity (303.15 K, 101 kPa, x2 = 0.7954): 0.7086 ± 0.0047 mPa·s
viscosity (303.15 K, 101 kPa, x2 = 0.8986): 0.763 ± 0.0049 mPa·s
viscosity (313 K, 101 kPa, x1 = 0.1025): 0.6343 ± 0.0046 mPa·s
viscosity (313 K, 101 kPa, x1 = 0.2016): 0.5965 ± 0.0044 mPa·s
viscosity (313 K, 101 kPa, x1 = 0.2982): 0.5693 ± 0.0043 mPa·s
viscosity (313 K, 101 kPa, x1 = 0.402): 0.5417 ± 0.0042 mPa·s
viscosity (313 K, 101 kPa, x1 = 0.4944): 0.5288 ± 0.0041 mPa·s
viscosity (313 K, 101 kPa, x1 = 0.5992): 0.5165 ± 0.0041 mPa·s
viscosity (313 K, 101 kPa, x1 = 0.6952): 0.5142 ± 0.0042 mPa·s
viscosity (313 K, 101 kPa, x1 = 0.7997): 0.5159 ± 0.0043 mPa·s
viscosity (323 K, 101 kPa, x1 = 0.1025): 0.54 ± 0.004 mPa·s
viscosity (323 K, 101 kPa, x1 = 0.2016): 0.5237 ± 0.0039 mPa·s
viscosity (323 K, 101 kPa, x1 = 0.2982): 0.4976 ± 0.0038 mPa·s
viscosity (323 K, 101 kPa, x1 = 0.402): 0.4831 ± 0.0038 mPa·s
viscosity (323 K, 101 kPa, x1 = 0.4944): 0.4765 ± 0.0038 mPa·s
viscosity (323 K, 101 kPa, x1 = 0.6952): 0.462 ± 0.0038 mPa·s
viscosity (323 K, 101 kPa, x1 = 0.7997): 0.4612 ± 0.0039 mPa·s
viscosity (323 K, 101 kPa, x1 = 0.8951): 0.4608 ± 0.0039 mPa·s

Cc1ccc(C)cc1 + C1CCOC1
viscosity (303.15 K, 101.33 kPa, x2 = 0.1057): 0.564 ± 0.005 mPa·s
viscosity (303.15 K, 101.33 kPa, x2 = 0.2037): 0.557 ± 0.005 mPa·s
viscosity (303.15 K, 101.33 kPa, x2 = 0.2809): 0.552 ± 0.005 mPa·s
viscosity (303.15 K, 101.33 kPa, x2 = 0.4052): 0.544 ± 0.005 mPa·s
viscosity (303.15 K, 101.33 kPa, x2 = 0.5256): 0.53 ± 0.005 mPa·s
viscosity (303.15 K, 101.33 kPa, x2 = 0.6045): 0.518 ± 0.005 mPa·s
viscosity (303.15 K, 101.33 kPa, x2 = 0.7062): 0.501 ± 0.005 mPa·s
viscosity (303.15 K, 101.33 kPa, x2 = 0.8021): 0.485 ± 0.005 mPa·s
viscosity (303.15 K, 101.33 kPa, x2 = 0.9001): 0.462 ± 0.004 mPa·s

[Cl-].[Cl-].[Cl-].[Cl-].[Ge+4] + C1COCCO1
viscosity (298.15 K, 101 kPa, x2 = 0.1519): 0.626 ± 0.016 mPa·s
viscosity (298.15 K, 101 kPa, x2 = 0.3148): 0.67 ± 0.017 mPa·s
viscosity (298.15 K, 101 kPa, x2 = 0.5071): 0.745 ± 0.019 mPa·s
viscosity (298.15 K, 101 kPa, x2 = 0.6631): 0.837 ± 0.021 mPa·s
viscosity (298.15 K, 101 kPa, x2 = 0.8814): 0.978 ± 0.025 mPa·s
viscosity (298.15 K, 101 kPa, x2 = 0.9218): 1.087 ± 0.027 mPa·s
viscosity (313.15 K, 101 kPa, x2 = 0.1519): 0.539 ± 0.014 mPa·s
viscosity (313.15 K, 101 kPa, x2 = 0.3148): 0.57 ± 0.014 mPa·s
viscosity (313.15 K, 101 kPa, x2 = 0.5071): 0.627 ± 0.016 mPa·s
viscosity (313.15 K, 101 kPa, x2 = 0.6631): 0.687 ± 0.017 mPa·s
viscosity (313.15 K, 101 kPa, x2 = 0.8814): 0.784 ± 0.02 mPa·s
viscosity (313.15 K, 101 kPa, x2 = 0.9218): 0.856 ± 0.022 mPa·s
